Assay results from patent US6737383B1, “Herbicidal oxadiazolidines” (priority 1999, dated 2004).

What was measured:
[1] = tested on: bermuda-grass; assay: Test D bermudagrass; type: in vivo, Cynodon dactylon; details: Preemergence, 0 to 100 scale
Method in brief: (§1)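 Greenhouse pots, sandy loam, single species per pot. Preemergence tests: soil-surface application ≤1 day after planting. Compound formulated in non-phytotoxic solvent with surfactant. Visual rating 14–21 DAT, scale 0–100.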

[2] = tested on: green foxtail; assay: Test E green foxtail; type: in vivo, Setaria viridis; details: Preemergence
[3] = tested on: common ragweed; assay: Test D common ragweed; type: in vivo, Ambrosia elatior; details: Preemergence, 0 to 100 scale
Method in brief: as §1

[4] = tested on: winter wheat; assay: Test E winter wheat; type: in vivo, Triticum aestivum; details: Postemergence
Method in brief: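 For postemergence, plants at the 1- to 4-leaf stage, in a 60:40 mix of sandy loam and potting mix, treated with compound formulated in a surfactant-containing non-phytotoxic solvent. Visual assessment versus untreated controls followed roughly 21–28 days in the greenhouse.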

[5] = tested on: rape; assay: Test B pre/postemergence rape; type: in vivo, Brassica napus
Method in brief: (§2)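 Response is a visual 0-to-10 score relative to untreated plants, where 0 means no effect and 10 means complete control, taken twelve to sixteen days after application. Treatments went onto soil at planting and onto foliage of 1- to 4-leaf plants, using a surfactant-containing non-phytotoxic solvent.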

[6] = tested on: duck salad; assay: Test B flood test duck salad; type: in vivo, Heteranthera limosa
Method in brief: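 Each value is a visual injury score relative to controls, with 10 meaning complete control and 0 no effect. Evaluation took place twelve to sixteen days after the 2-leaf-stage plants were treated and kept in the greenhouse.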

[7] = tested on: Italian ryegrass; assay: Test E Italian ryegrass; type: in vivo, Lolium multiflorum; details: Preemergence
[8] = tested on: winter wheat; assay: Test E winter wheat; type: in vivo, Triticum aestivum; details: Preemergence
[9] = tested on: winter barley; assay: Test E winter barley; type: in vivo, Hordeum vulgare; details: Preemergence
[10] = tested on: sugar beet; assay: Test B pre/postemergence sugar beet; type: in vivo, Beta vulgaris; details: for Sugarbeets plant response rating (0 to 10 scale): 0 is no effect
Method in brief: as §2

[11] = tested on: blackgrass; assay: Test E blackgrass; type: in vivo, Alopecurus myosuroides; details: Preemergence
[12] = tested on: wild oat; assay: Test E wild oat; type: in vivo, Avena fatua; details: Preemergence
[13] = tested on: purple nutsedge; assay: Test B pre/postemergence purple nutsedge; type: in vivo, Cyperus rotundus
Method in brief: as §2

[14] = Rate 16 g/ha, 0 no injury, 100 complete control
[15] = Rate 32 g/ha, 0 no injury, 100 complete control
[16] = Rate 64 g/ha, 0 no injury, 100 complete control
[17] = Rate 125 g/ha, 0 no injury, 100 complete control
[18] = Rate 62 g/ha, 0 to 100 scale, 0 no effect, 100 complete control
[19] = Rate 125 g/ha, 0 to 100 scale (0 no effect, 100 complete control)
[20] = Postemergence, Rate 125 g/ha, scale of 0 to 10 where 0 is no effect and 10 is complete control
[21] = Preemergence, Rate 62 g/ha, scale 0 to 10 (0 no effect, 10 complete control)
[22] = Preemergence, Rate 125 g/ha, 0 is no effect, 10 is complete control
[23] = Preemergence, Rate 250 g/ha, scale 0 to 10, 0 is no effect, 10 is complete control
[24] = Preemergence, Rate 500 g/ha, scale 0 to 10 (0 no effect, 10 complete control)
[25] = Rate 62 g/ha, Postemergence, scale of 0 to 10 where 0 is no effect and 10 is complete control
[26] = Rate 250 g/ha, Postemergence, scale 0 to 10, 0 is no effect, 10 is complete control
[27] = Rate 500 g/ha, Postemergence, scale 0 to 10
[28] = Rate 250 g/ha, headed Pre-emergence (flood test species), scale 0 to 10 (0 no effect, 10 complete control)
[29] = Rate 500 g/ha, headed Pre-emergence (flood test species), scale 0 to 10 (0 no effect, 10 complete control)
[30] = Rate 500 g/ha, 0 to 100 scale where 0 is no effect and 100 is complete control
[31] = Preemergence, Rate 125 g/ha, 10 is complete control
[32] = Postemergence, Rate 250 g/ha, scale 0 to 10, 0 no effect, 10 complete control
[33] = Preemergence, Rate 125 g/ha, scale 0 to 10 (0 no effect, 10 complete control)
[34] = Preemergence, Rate 250 g/ha, scale of 0 to 10 where 0 is no effect and 10 is complete control
[35] = Rate 500 g/ha, Postemergence, scale 0 to 10, 0 no effect, 10 complete control

## CC(C)N(C(=O)n1oc(=O)n(C(C)C)c1=O)c1ccc(F)cc1 [Compound 131]
[1]; [14]
  Plant response rating, Bermudagrass: 100
[1]; [15]
  Plant response rating, Bermudagrass: 100
[1]; [16]
  Plant response rating, Bermudagrass: 100
[1]; [17]
  Plant response rating, Bermudagrass: 100
[1]; Rate 250 g/ha
  Plant response rating, Bermudagrass: 100
[1]; Rate 500 g/ha
  Plant response rating, Bermudagrass: 100
[2]; [18]
  Plant response rating, Green foxtail: 60
[2]; [19]
  Plant response rating, Green foxtail: 100
[2]; Rate 250 g/ha
  Green foxtail plant response rating (0 to 100 scale): 100
[3]; [14]
  Plant response rating, C. ragweed: 0
[3]; [15]
  Plant response rating, C. ragweed: 0
[3]; [16]
  Plant response rating, C. ragweed: 30
[3]; [17]
  Plant response rating, C. ragweed: 30
[3]; Rate 250 g/ha
  Plant response rating, C. ragweed: 100
[3]; Rate 500 g/ha
  Plant response rating, C. ragweed: 100
[4]; Rate 62 g/ha, 0 to 100 scale
  Plant response rating, Wheat (winter): 50
[4]; Rate 125 g/ha, 0 to 100 scale
  Plant response rating, Wheat (winter): 60
[4]; Rate 500 g/ha, 0 to 100 scale, 0 no effect, 100 complete control
  Plant response rating, Wheat (winter): 20
[4]; Rate 250 g/ha, 0 to 100 scale where 0 is no effect and 100 is complete control
  Wheat (winter) plant response rating: 0
[5]; [20]
  Rape plant response rating: 4
[5]; [21]
  Rape plant response rating: 8
[5]; [22]
  Rape plant response rating (0 to 10 scale): 10
[5]; [23]
  Rape plant response rating: 10
[5]; [24]
  Rape plant response rating: 10
[5]; [25]
  Rape plant response rating: 1
[5]; [26]
  Plant response rating, Rape: 7
[5]; [27]
  Rape plant response rating: 9
[6]; Rate 62 g/ha, headed Pre-emergence (flood test species), scale 0 to 10 (0 no effect, 10 complete control)
  Ducksalad plant response rating: 0
[6]; Rate 125 g/ha, Pre-emergence, flood test species, scale 0 to 10 where 0 is no effect and 10 is complete control
  Ducksalad plant response rating: 0
[6]; [28]
  Ducksalad plant response rating: 7
[6]; [29]
  Plant response rating, Ducksalad: 9
[7]; [18]
  Plant response rating, I. Ryegrass: 70
[7]; [19]
  Plant response rating, I. Ryegrass: 100
[7]; Rate 250 g/ha
  I. Ryegrass plant response rating (0 to 100 scale): 100
[7]; [30]
  Plant response rating, I. Ryegrass: 100
[8]; [18]
  Plant response rating, Wheat (winter): 50
[8]; [19]
  Plant response rating, Wheat (winter): 35
[8]; Rate 250 g/ha
  Wheat (winter) plant response rating (0 to 100 scale): 60
[8]; [30]
  Plant response rating, Wheat (winter): 95
[9]; [18]
  Plant response rating, Barley (winter): 40
[9]; [19]
  Plant response rating, Barley (winter): 65
[9]; Rate 250 g/ha
  Barley (winter) plant response rating (0 to 100 scale): 100
[9]; [30]
  Plant response rating, Barley (winter): 100
[10]; [20]
  Sugarbeets plant response rating: 3
[10]; [21]
  Sugarbeets plant response rating: 7
[10]; [31]
  Sugarbeets plant response rating (0 to 10 scale): 8
[10]; [23]
  Sugarbeets plant response rating: 10
[10]; [24]
  Sugarbeets plant response rating: 10
[10]; [25]
  Sugarbeets plant response rating: 2
[10]; [26]
  Plant response rating, Sugarbeets: 6
[10]; [27]
  Sugarbeets plant response rating: 8
[11]; [18]
  Plant response rating, Blackgrass: 60
[11]; [19]
  Plant response rating, Blackgrass: 50
[11]; Rate 250 g/ha
  Blackgrass plant response rating (0 to 100 scale): 60
[11]; [30]
  Plant response rating, Blackgrass: 100
[12]; [18]
  Plant response rating, Wild oat: 50
[12]; [19]
  Plant response rating, Wild oat: 50
[12]; Rate 250 g/ha
  Wild oat plant response rating (0 to 100 scale): 60
[12]; [30]
  Plant response rating, Wild oat: 100
[13]; [20]
  Nutsedge plant response rating: 0
[13]; [21]
  Nutsedge plant response rating: 0
[13]; [22]
  Nutsedge plant response rating (0 to 10 scale): 0
[13]; [23]
  Nutsedge plant response rating: 0
[13]; [24]
  Nutsedge plant response rating: 0
[13]; [25]
  Nutsedge plant response rating: 0
[13]; [26]
  Plant response rating, Nutsedge: 0
[13]; [27]
  Nutsedge plant response rating: 2

## CCn1c(=O)on(C(=O)N(c2ccccc2)C(C)C)c1=O [Compound 117]
[1]; [16]
  Plant response rating, Bermudagrass: 98
[1]; [17]
  Plant response rating, Bermudagrass: 100
[1]; Rate 500 g/ha
  Plant response rating, Bermudagrass: 100
[2]; [18]
  Plant response rating, Green foxtail: 50
[2]; [19]
  Plant response rating, Green foxtail: 60
[2]; Rate 250 g/ha, 0 to 100 scale
  Plant response rating, Green foxtail: 80
[3]; [16]
  Plant response rating, C. ragweed: 0
[3]; [17]
  Plant response rating, C. ragweed: 0
[3]; Rate 500 g/ha
  Plant response rating, C. ragweed: 65
[4]; Rate 62 g/ha, 0 to 100 scale
  Plant response rating, Wheat (winter): 0
[4]; Rate 125 g/ha, 0 to 100 scale
  Plant response rating, Wheat (winter): 10
[4]; Rate 250 g/ha, 0 to 100 scale (0 no effect, 100 complete control)
  Plant response rating, Wheat (winter): 25
[5]; [20]
  Rape plant response rating: 0
[5]; [32]
  Rape plant response rating: 2
[5]; [21]
  Rape plant response rating: 6
[5]; [33]
  Plant response rating, Rape: 10
[5]; [34]
  Plant response rating, Rape: 10
[5]; [24]
  Rape plant response rating: 10
[5]; [25]
  Rape plant response rating: 0
[5]; [35]
  Rape plant response rating: 6
[6]; Postemergence (flood test species), Rate 125 g/ha, scale of 0 to 10 where 0 is no effect and 10 is complete control
  Ducksalad plant response rating: 0
[6]; Rate 62 g/ha, Postemergence section, flood test species, scale of 0 to 10 where 0 is no effect and 10 is complete control
  Ducksalad plant response rating: 0
[6]; [28]
  Ducksalad plant response rating: 0
[6]; [29]
  Plant response rating, Ducksalad: 0
[6]; Rate 500 g/ha, listed under Postemergence (flood test species), scale 0 to 10, 0 no effect, 10 complete control
  Ducksalad plant response rating: 0
[6]; Rate 1000 g/ha, Pre-emergence (as headed), scale 0 to 10
  Ducksalad plant response rating: 0
[6]; Rate 2000 g/ha, Pre-emergence (as headed), scale 0 to 10
  Ducksalad plant response rating: 1
[6]; flood test, listed under Postemergence, Rate 250 g/ha, scale 0 to 10, 0 no effect, 10 complete control
  Ducksalad plant response rating: 0
[7]; [18]
  Plant response rating, I. Ryegrass: 50
[7]; [19]
  Plant response rating, I. Ryegrass: 45
[7]; Rate 250 g/ha, 0 to 100 scale
  Plant response rating, I. Ryegrass: 85
[8]; [18]
  Plant response rating, Wheat (winter): 30
[8]; [19]
  Plant response rating, Wheat (winter): 60
[8]; Rate 250 g/ha, 0 to 100 scale
  Plant response rating, Wheat (winter): 90
[9]; [18]
  Plant response rating, Barley (winter): 25
[9]; [19]
  Plant response rating, Barley (winter): 20
[9]; Rate 250 g/ha, 0 to 100 scale
  Plant response rating, Barley (winter): 30
[10]; [20]
  Sugarbeets plant response rating: 0
[10]; [21]
  Sugarbeets plant response rating: 0
[10]; [31]
  Sugarbeets plant response rating (0 to 10 scale): 8
[10]; [34]
  Plant response rating, Sugarbeets: 9
[10]; [24]
  Sugarbeets plant response rating: 10
[10]; [25]
  Sugarbeets plant response rating: 0
[10]; [26]
  Plant response rating, Sugarbeets: 3
[10]; [35]
  Sugarbeets plant response rating: 7
[11]; [18]
  Plant response rating, Blackgrass: 50
[11]; [19]
  Plant response rating, Blackgrass: 50
[11]; Rate 250 g/ha, 0 to 100 scale
  Plant response rating, Blackgrass: 60
[12]; [18]
  Plant response rating, Wild oat: 20
[12]; [19]
  Plant response rating, Wild oat: 20
[13]; [20]
  Nutsedge plant response rating: 7
[13]; [32]
  Nutsedge plant response rating: 7
[13]; [21]
  Nutsedge plant response rating: 0
[13]; [33]
  Plant response rating, Nutsedge: 0
[13]; [34]
  Plant response rating, Nutsedge: 3
[13]; [24]
  Nutsedge plant response rating: 7
[13]; [25]
  Nutsedge plant response rating: 2
[13]; [35]
  Nutsedge plant response rating: 7
